The values that follow are results of earlier work, collected in PMC8330515 (Bioorganic & medicinal chemistry letters, 2020).

For orientation: IC50 means the concentration needed to halve the response being measured.

This series relates to normal prostate epithelial cells. The conditions noted are these: read-out: 24 h IC50 in normal prostate epithelial cells.

With `CCN(CC)C(=S)SCc1ccc(NC(=O)CC[C@H](N)C(=O)O)cc1` [GGTDTC], the IC50 was over 15 µM.
